Key:
[1] = Completion time of reaction of TPCPD with cyclooctynes at 50 mM; type: physicochemical; conditions: 50 mM concentration
RAW cells = experiment: WST-1 cytotoxicity test on RAW cells; type: cell-based, mouse
Experimental: In order to assess the cytotoxic effect of the reactants, 1 and 6a, as well as product 31, on RAW cells, the cytotoxicity test WST-1 was performed to examine induction by TPCPD (1) and BCN (6a) over varying concentrations and periods of time (FIGS. 3A-3C).
Different concentrations of each molecule were assessed: from 0.78 to 100 μM for 1 and 31 and 7.8 to 1000 μM for 6a. Different time points were assessed (1 h, 4 h, 8 h and 24 h). Triton 0.1% was used as a positive control of cytotoxicity and the subsequent value was established as 100% of cytotoxicity.

[2] = MTT cytotoxicity test of mannose-modified reactants (FIG. 4)
Experimental: The cytotoxicity test, MTT assay, was performed to define the concentration using TPCPD-M (57, 1 mM) and BCN-M (61, 1 mM) (FIG. 4).

[3] = Intramolecular DARinv (CO release) in DMSO/PBS (7.4) at 37° C.; type: physicochemical
Description: (§1) Then the reaction mixture was extracted with ethyl acetate, and the obtained organic layer was dried with anhydrous Na2SO4, filtered and concentrated.
Then the reaction mixture was extracted with ethyl acetate, and the obtained organic layer was dried with anhydrous Na2SO4.
as §1

TNF-α = experiment: LPS-induced accumulation of TNF-α by ELISA in RAW 264.7 culture supernatant; type: cell-based, mouse; conditions: tested separately (control)
Experimental: RAW264.7 cell were seeded in 6-well plates and incubated overnight. Cells were then stimulated with LPS (10 mg/mL) for 1 h. TPCPD (1) and BCN (6a) (different concentrations) were added to well after 1 hr LPS treatment (same for all wells). As a control, the product (31) was used at same concentration as the anti-inflammation test to confirm that the suppression of TNF-α is result of CO instead of the reagent (or product) themselves (compounds 1, 6a, and 31). TNF-α secretion in the medium was measured with an eBioscience kit (mouse TNF-α ELISA kit, eBioscience, San Diego, Calif., USA).
TNF-α is a major pro-inflammatory cytokine, mainly secreted from macrophages and dendritic cells. Its production is induced in vitro by stimulation with LPS. The accumulation of TNF-α was assessed by ELISA in the culture supernatant of the macrophage cell line, RAW 264.7 (FIG. 5). The cells were stimulated for 1 h and then co-treated by […] for 24 h. […] A 50% decrease of the LPS-induced accumulation of TNF-α was observed after co-treatment with TPCPD-M and BCN-M at the respective concentration of 1 mM+1 mM.
As a control, the effect of the TPCPD-M and BCN-M were tested separately (FIG. 5).

[4] = Water solubility of mannose-modified reactants; type: physicochemical
[5] = 8 h, within the concentration range studied

## OCC1[C@H]2CCC#CCC[C@@H]12 (stereo partly drawn) [BCN]
[1]
  time in which the reaction with TPCPD finished: ≤ 5 min
RAW cells; [5]
  cytotoxicity: Neither 6a (FIG. 3B) and nor the product (FIG. 3C) displayed any sign of cytotoxicity
RAW cells; 24 h, 1 mM
  cytotoxicity: 60%

## NCC(=O)O.[C-]#[O+].[C-]#[O+].[C-]#[O+].[Cl][Ru] [CORM3, reference compound]
[2]; 1 mM concentration
  decrease in cell viability: 30%

## O=C1C(c2ccccc2)=C(c2ccccc2)C(c2ccccc2)=C1c1ccccc1 [TPCPD]
RAW cells; 8 h, 50 μM
  toxicity (cytotoxicity, Triton 0.1% = 100%): 44%
RAW cells; 8 h, 100 μM
  toxicity (cytotoxicity, Triton 0.1% = 100%): 49%
RAW cells; 24 h, concentrations higher than 12.5 μM
  cytotoxicity: more than 50%

## OC[C@@H]1[C@H]2CCc3c(c(-c4ccccc4)c(-c4ccccc4)c(-c4ccccc4)c3-c3ccccc3)CC[C@@H]12 [compound 31]
RAW cells; [5]
  cytotoxicity: Neither 6a (FIG. 3B) and nor the product (FIG. 3C) displayed any sign of cytotoxicity
RAW cells; 24 h, within the concentration range tested
  cytotoxicity: not cytotoxic

## C#CCOc1ccccc1C1=C2C(=C(C(=O)N3CCOCC3)C1=O)c1cccc3cccc2c13 [compound 51]
[3]
  incubation time after which the intramolecular DARinv reaction was finished: 16 h

## O=C(NCCOCCOCCOC1OC(CO)C(O)C(O)C1O)OCC1[C@H]2CCC#CCC[C@@H]12 (stereo partly drawn) [compound 61]
TNF-α
  inhibition of the LPS-induced accumulation of TNF-α: do not lead to any inhibition
[2]; 24 h of treatment, within 1 mM concentration
  cytotoxicity (MTT): none of the compounds led to any cytotoxicity
[4]
  water solubility: water soluble

## C1#CCCCCCC1 [cyclooctyne]
[1]
  time in which the reaction with TPCPD finished: 15 min

## fluorocyclooctyne [fluorocycolooctyne]
[1]
  time after which the reaction with TPCPD had not reached completion: > 24 h

Reference: patent US10300069B2, “Carbon monoxide-releasing molecules for therapeutic applications and methods of making and using thereof” (Georgia State University Research Foundation, Inc., priority 2014, dated 2019)
